Target: hCRTH2 receptor (Homo sapiens (Human), UniProt Q9Y5Y4)
Test: hCRTH2 receptor membranes radioligand (3H-PGD2) displacement assay
Assay type: binding
Conditions: 3H-PGD2 radioligand displacement, HEK293-hCRTH2 membranes
Procedure: Biological Assays: Preparation of hCRTH2 Receptor Membranes and Radioligand Displacement Assay:
First, recombinant HEK293-hCRTH2 cells were detached from culture plates into 5 ml buffer A/plate (Buffer A: 5 mM Tris, 1 mM MgCl2-6H2O pH=7.4) using a rubber policeman. Cells were then transferred into centrifugation tubes and centrifuged for 5 min at 400 g. The cell pellet was resuspended in the same buffer and tubes were frozen at −80° C. Cells were thawed and membrane fragments were generated by homogenization using a polytron homogenizer (30 seconds). The membrane fragments were then centrifuged at 3000 g for 20 minutes and resuspended in buffer C (Buffer C: 75 mM Tris, 25 mM MgCl2, 250 mM Saccharose pH 7.4). Aliquots of membrane fragments were stored at −20° C.
Binding assay was performed in a final assay volume of 250 μl. First, 25 μl of test compound, previously diluted in Binding-Buffer (Binding-Buffer: 50 mM Tris-Base, 100 mM NaCl, 1 mM EDTA, 0.1% BSA (protease free), 0.01% NaN3, 10 mM MnCl2, pH 7.0) was placed into each well. After addition of 75 μl Binding-Buffer, 50 μl of the radioligand ^3H-PGD2 (at 2.5 nM (220.000 dpm/well) from ANAWA ART0662) was added to each well. Binding assay was started by addition of 100 μl CRTH2 membrane fragments, reaching a final concentration of 20 μg/well. For non-specific binding, PGD2 was added to the reaction mixture to […] final concentration. This assay mix was incubated for 90 minutes at room temperature and then filtered through a GF/C filter 96-well plate which was pre-soaked for 3 hours in 0.5% polyethyleneimine (PEI). The filter-wells were washed three times with ice cold Binding-Buffer. Then, 40 μl of Microscint-40 (Packard) was added to each well and the retained radioactivity quantified in a Topcount (Packard).

hCRTH2 receptor, sequence (Q9Y5Y4 whole entry): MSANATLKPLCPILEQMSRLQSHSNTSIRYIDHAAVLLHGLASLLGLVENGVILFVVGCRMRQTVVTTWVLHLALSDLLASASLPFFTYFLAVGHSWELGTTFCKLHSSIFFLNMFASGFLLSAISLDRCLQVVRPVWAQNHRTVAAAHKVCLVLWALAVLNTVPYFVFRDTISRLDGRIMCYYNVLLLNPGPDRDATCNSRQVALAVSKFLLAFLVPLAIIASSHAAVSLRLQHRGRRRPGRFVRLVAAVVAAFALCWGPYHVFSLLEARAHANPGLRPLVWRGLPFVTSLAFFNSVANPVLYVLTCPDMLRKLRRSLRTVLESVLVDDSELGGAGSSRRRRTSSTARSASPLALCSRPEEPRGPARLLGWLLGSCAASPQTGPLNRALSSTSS

SMILES	IC50 [nM]
O=C(O)Cc1ccc(-c2ccc(F)c3c2CN(C(=O)OCc2ccccc2)CC3)cc1 [Example 41, 8-(4-Carboxymethyl-phenyl)-5-fluoro-3,4-dihydro-1H-isoquinoline-2-carboxylic acid benzyl ester]	44.9
COc1ccc(CC(=O)O)cc1-c1ccc(F)c2c1CN(C(=O)OCc1ccnn1C)CC2 [Example 148, 8-(5-Carboxymethyl-2-methoxy-phenyl)-5-fluoro-3,4-dihydro-1H-isoquinoline-2-carboxylic acid 2-methyl-2H-pyrazol-3-ylmethyl ester]	51.6
COc1ccc(CC(=O)O)cc1-c1ccc(F)c2c1CN(C(=O)C1CCc3ccccc3O1)CC2 (racemic) [Example 115, (±)-{3-[2-(Chroman-2-carbonyl)-5-fluoro-1,2,3,4-tetrahydro-isoquinolin-8-yl]-4-methoxy-phenyl}-acetic acid]	173
CCOc1ccc(CC(=O)O)cc1-c1ccc(F)c2c1CN(C(=O)CC(c1ccccn1)C1CC1)CC2 (racemic) [Example 318]	114
CCOc1cc(CC(=O)O)ccc1-c1ccc(F)c2c1CN(C(=O)NCc1ccc(F)cc1)CC2 [Example 442, {3-Ethoxy-4-[5-fluoro-2-(4-fluoro-benzylcarbamoyl)-1,2,3,4-tetrahydro-isoquinolin-8-yl]-phenyl}-acetic acid]	5.3
COc1ccc(CC(=O)O)cc1-c1ccc(F)c2c1CN(C(=O)CCC(=O)c1ccccc1)CC2 [Example 118, {3-[5-Fluoro-2-(4-oxo-4-phenyl-butyryl)-1,2,3,4-tetrahydro-isoquinolin-8-yl]-4-methoxy-phenyl}-acetic acid]	38.6
O=C(O)Cc1ccc(-c2ccc(F)c3c2CN(C(=O)OCc2ccccc2)CC3)cc1Cl [Example 40, 8-(4-Carboxymethyl-3-chloro-phenyl)-5-fluoro-3,4-dihydro-1H-isoquinoline-2-carboxylic acid benzyl ester]	29.1
COc1ccc(CC(=O)O)cc1-c1ccc(F)c2c1CN(C(=O)CC1COc3ccccc31)CC2 (racemic) [Example 270]	25.3
CCOc1ccc(CC(=O)O)cc1-c1ccc(F)c2c1CN(C(=O)CC(C)c1nccs1)CC2 (racemic) [Example 283]	7.2
O=C(O)Cc1ccc(-c2ccc(F)c3c2CN(C(=O)OCc2ccccc2)CC3)c(F)c1 [Example 164, 8-(4-Carboxymethyl-2-fluoro-phenyl)-5-fluoro-3,4-dihydro-1H-isoquinoline-2-carboxylic acid benzyl ester]	47.3

Now those with a lower IC50, led by results:

IC50 [nM]	SMILES
3.1	O=C(O)Cc1ccc(OCCF)c(-c2ccc(F)c3c2CN(C(=O)[C@@H]2C[C@H]2c2ccccc2)CC3)c1 [Example 427, {4-(2-Fluoro-ethoxy)-3-[5-fluoro-2-((1R,2R)-2-phenyl-cyclopropanecarbonyl)-1,2,3,4-tetrahydro-isoquinolin-8-yl]-phenyl}-acetic acid]
1.93	COc1ccc(CC(=O)O)cc1-c1ccc(F)c2c1CN(C(=O)[C@@H]1C[C@H]1c1ccc(Cl)cc1)CC2 (racemic) [Example 2, (±)-(3-{2-[trans-2-(4-Chloro-phenyl)-cyclopropanecarbonyl]-5-fluoro-1,2,3,4-tetrahydro-isoquinolin-8-yl}-4-methoxy-phenyl)-acetic acid]
1.7	Cc1cccc(CCC(=O)N2CCc3c(F)ccc(-c4cc(CC(=O)O)ccc4OC(C)C)c3C2)n1 [Example 295, (3-{5-Fluoro-2-[3-(6-methyl-pyridin-2-yl)-propionyl]-1,2,3,4-tetrahydro-isoquinolin-8-yl}-4-isopropoxy-phenyl)-acetic acid]
1.5	C[C@H](CC(=O)N1CCc2c(F)ccc(-c3ccc(CC(=O)O)cc3OCC(F)(F)F)c2C1)c1ccccc1 [Example 347, [4-[5-Fluoro-2-((R)-3-phenyl-butyryl)-1,2,3,4-tetrahydro-isoquinolin-8-yl]-3-(2,2,2-trifluoro-ethoxy)-phenyl]-acetic acid]
1.1	CCOc1cc(CC(=O)O)ccc1-c1ccc(F)c2c1CN(C(=O)CC1CCc3ccccc31)CC2 (racemic) [Example 233]

Reference: patent US9255090B2, “Heterocyclyl derivatives and their use as prostaglandin D2 receptor modulators” (Actelion Pharmaceuticals Ltd., priority 2012, dated 2016)
